Measured values taken from patent US20250230138A1, “COMPOUNDS HAVING A T-STRUCTURE FORMED BY AT LEAST FOUR CYCLES FOR USE IN THE TREATMENT OF CANCER AND OTHER INDICATIONS” (TheRas, Inc., priority 2022, published 2025).

What was measured:
pAKT in BT474 cells = assay: Cell-based pAKT HTRF assay in BT474 cells; details: BT474 cells; 4 hr incubation; Compounds 10-999; read-out: pAKT inhibition IC50 in BT474 cells
In short: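 9-pt curve, top 3 μM, 3-fold steps, 0.25% DMSO; 4 hr compound exposure. Lysis, then HTRF with d2/Eu Cryptate antibody pair, 4–24 h RT. Ex 320 nm, Em 615 nm.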

[1] = molecular target: Cys242 in human PIK3CA (157-299) (Homo sapiens (Human), UniProt P42336); assay: Covalent modification assay using MALDI-TOF MS; format: biochemical; details: 4 h reaction time point; 3.33 μM protein target, 1:7.5 protein to compound ratio (compounds 1-852)
In short: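 PIK3CA (157-299), 3.33 or 1 μM in 20 mM HEPES, 150 mM NaCl, 2 mM MgCl2, pH 7.3, was incubated with compound at room temperature in the dark for 15 min, 30 min, 2 h or 4 h. Linear MALDI-TOF read-out; % modification = adduct peak height over summed heights of all protein species.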

Sequence of Cys242 in human PIK3CA (157-299) (P42336 157-299): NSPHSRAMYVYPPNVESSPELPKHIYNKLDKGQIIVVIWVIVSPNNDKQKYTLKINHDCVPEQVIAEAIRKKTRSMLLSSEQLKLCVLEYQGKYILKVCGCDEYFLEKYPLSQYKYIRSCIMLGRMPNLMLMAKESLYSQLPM

Row | Structure (SMILES) | IC50 (pAKT in BT474 cells) [µM] | % of modification [1]
1 | C=CC(=O)N1Cc2cc(-c3nc(-c4ccc5c(cnn5C)c4)c4ccsc4c3-c3c(F)cc(F)cc3OCCOC)nn2[C@@H](C)C1 [Compound 739] | < 0.1 | A (percent of modification of PIK3CA protein ≥75%)
2 | C=CC(=O)N1Cc2cc(-c3nc(-c4cnnc(C)c4)c4ccsc4c3-c3c(F)cc(F)cc3OCCOC)nn2[C@@H](C)C1 [Compound 740] | < 0.1 | A (percent of modification of PIK3CA protein ≥75%)
3 | C=CC(=O)N1CCn2nc(-c3nc(-c4cn(C)cn4)c4ccsc4c3-c3c(F)cc(F)cc3OCCOC)cc2[C@H]1C [Compound 741] | < 0.1 | A (percent of modification of PIK3CA protein ≥75%)
4 | C=CC(=O)N1Cc2cc(-c3nc(-c4ccc5cn(C)nc5c4)c4ccsc4c3-c3c(F)cc(F)cc3OCCOC)nn2[C@@H](C)C1 [Compound 742] | < 0.1 | A (percent of modification of PIK3CA protein ≥75%)
5 | C=CC(=O)N1CCn2nc(-c3nc(-c4cn(C)cn4)c4ccsc4c3-c3c(F)cc(F)cc3OC[C@@H](C)O)cc2[C@H]1C [Compound 744] | < 0.1 | A (percent of modification of PIK3CA protein ≥75%)
6 | C=CC(=O)N1Cc2cc(-c3nc(-c4ccc5c(c4)CS(=O)(=O)C5)c4ccsc4c3-c3c(F)cc(F)cc3OCCOC)nn2C[C@H]1C [Compound 746] | < 0.1 | A (percent of modification of PIK3CA protein ≥75%)
7 | C=CC(=O)N1CCn2nc(-c3nc(-c4ccc5ncn(C)c5c4)c4ccsc4c3-c3c(F)cc(F)cc3OC[C@@H](C)O)cc2[C@H]1C [Compound 748] | < 0.1 | A (percent of modification of PIK3CA protein ≥75%)
8 | C=CC(=O)N1CCn2nc(-c3nc(-c4ccc5nn(C)cc5c4)c4ccsc4c3-c3c(F)cc(F)cc3OCCOC)cc2[C@H]1C [Compound 749] | < 0.1 | A (percent of modification of PIK3CA protein ≥75%)
9 | C=CC(=O)N1CCn2nc(-c3nc(-c4cnnc(C)c4)c4ccsc4c3-c3c(F)cc(F)cc3OC[C@@H](C)O)cc2[C@H]1C [Compound 751] | < 0.1 | A (percent of modification of PIK3CA protein ≥75%)
10 | C=CC(=O)N1Cc2cc(-c3nc(-c4ccc5cn(C)nc5c4)c4ccsc4c3-c3c(F)cc(F)cc3OC[C@@H](C)O)nn2C[C@H]1C [Compound 752] | < 0.1 | A (percent of modification of PIK3CA protein ≥75%)
11 | C=CC(=O)N1CCn2nc(-c3nc(-c4cnn(C)c4)c4ccsc4c3-c3c(F)cc(F)cc3OC[C@@H](C)O)cc2[C@H]1C [Compound 753] | < 0.1 | A (percent of modification of PIK3CA protein ≥75%)

The next lines start with results.

Row | IC50 (pAKT in BT474 cells) [µM] | Structure (SMILES) | % of modification [1]
12 | < 0.1 | C=CC(=O)N1Cc2cc(-c3nc(-c4cnnc(C)c4)c4ccsc4c3-c3c(F)cc(F)cc3OC[C@@H](C)O)nn2C[C@H]1C [Compound 743] | A (percent of modification of PIK3CA protein ≥75%)
13 | < 0.1 | C=CC(=O)N1Cc2cc(-c3nc(-c4cn(C)cn4)c4ccsc4c3-c3c(F)cc(F)cc3OC[C@@H](C)O)nn2C[C@H]1C [Compound 745] | A (percent of modification of PIK3CA protein ≥75%)
14 | < 0.1 | C=CC(=O)N1CCn2nc(-c3nc(-c4ccc5cn(C)nc5c4)c4ccsc4c3-c3c(F)cc(F)cc3OCCOC)cc2[C@H]1C [Compound 747] | A (percent of modification of PIK3CA protein ≥75%)
15 | < 0.1 | C=CC(=O)N1CCn2nc(-c3nc(-c4cnc5c(c4)CNC(=O)C5)c4ccsc4c3-c3c(F)cc(F)cc3OCCOC)cc2[C@H]1C [Compound 750] | A (percent of modification of PIK3CA protein ≥75%)
16 | < 0.1 | C=CC(=O)N1Cc2cc(-c3nc(-c4ccc5nn(C)cc5c4)c4ccsc4c3-c3c(F)cc(F)cc3OC[C@@H](C)O)nn2C[C@H]1C [Compound 754] | A (percent of modification of PIK3CA protein ≥75%)
